Test results: patent publication US6964870B2, “Enhanced selection of genetically modified pine embryogenic tissue” (MeadWestvaco Corporation, priority 2000, dated 2005)

System: precotyledonary embryos of loblolly pine or hybrid cell lines
Assay: Bombardment of precotyledonary embryos on preparation medium with high ABA (Example 3)
Type: cell-based
Settings: preparation medium for bombardment with 125 mg/L ABA; lines of cross 7-56×9-6 and others incl. interspecific hybrids
Procedure: For transformation in this example, the tissue was bombarded using conditions described in Example 1 except that the tissue had been plated on MSG2 medium containing 125 mg/L ABA and 70 g/L PEG 3-8 weeks previously, instead of on medium DCR3 one day previously, so that the experimental treatment consisted of precotyledonary embryos at various stages of development. Following DNA transfer, visible pre-stage 3 embryos were dissected from the bombarded tissues and placed individually onto DCR2 as described above for secondary proliferation.
Following a period of one to 14 days, when a preponderance of pre-stage 3 embryos dissected from the bombarded tissue could be seen to be beginning to proliferate secondary embryogenic cell masses, samples to be assayed for transformation were transferred to a selection medium identical to DCR2 except that it contained […] to initiate secondary embryogenesis. Samples of isolated pre-stage 3 embryos from each line and the secondary tissue proliferating from them were also cultured on DCR2 maintenance media without selection agent to observe any effect of the bombardment treatment on proliferation. These cultures were transferred to fresh maintenance media every three weeks. Proliferation of these non-selected controls at nine weeks after dissection is recorded in Table 4. […]

Structure (SMILES): CC1=CC(=O)CC(C)(C)[C@@]1(O)/C=C/C(C)=C\C(=O)O [ABA, abscisic acid]
- frequency of transformants: surprisingly high frequency of transformants
